In US10028961B2, “Therapeutically active compounds and their methods of use” (AGIOS PHARMACEUTICALS, INC., priority 2013, dated 2018):
Read-outs that look alike come from different tables or passages of the source.

Key:
[1] = molecular target: IDH1 wt/IDH1 R132H heterodimer (Homo sapiens (Human), UniProt O75874, R132H); assay: In vitro assay for IDH1m R132H inhibitors, IDH1 wt/IDH1 R132H heterodimer, NADPH depletion (diaphorase/resazurin); type: biochemical
Summary of the method: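 Read-out is NADPH left after α-KG reduction to 2-HG, measured via resorufin fluorescence after 5 min diaphorase/resazurin step at 25° C. Enzyme is sf9-expressed IDH1wt-his/IDH1R132H-flag heterodimer, pre-incubated 1 hr at room temperature with compound and cofactor. IC50s from DMSO stocks diluted 1:50.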

[2] = molecular target: IDH1-R132H homodimer enzyme (Homo sapiens (Human), UniProt O75874, R132H); assay: In vitro assay IDH1-R132H homodimer, NADPH depletion assay with NADPH/NADP preincubation; type: biochemical; settings: 5 μM NADPH and 37.5 μM NADP
Procedure: The following describes the experimental procedures that can be used to obtain data on columns 3 and 5 of Table 5.
A test compound is prepared as 10 mM stock in DMSO and diluted to 50× final concentration in DMSO, for a 50 μl reaction mixture. IDH enzyme activity converting alpha-ketoglutarate to 2-hydroxyglutaric acid is measured using a NADPH depletion assay. In the assay the remaining cofactor is measured at the end of the reaction with the addition of a catalytic excess of diaphorase and resazurin, to generate a fluorescent signal in proportion to the amount of NADPH remaining. […] The reaction is started with the addition of 10 μl of Substrate Mix ([…], 5 mM alpha-ketoglutarate, in Assay Buffer) and the mixture is incubated for 60 minutes at room temperature.

IDH2 R140Q = IDH2 R140Q (Homo sapiens (Human), UniProt P48735, R140Q); assay: In vitro assay for IDH2m R140Q inhibitors, cofactor depletion assay; type: biochemical; settings: IDH2 R140Q enzyme
Summary of the method: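 Remaining cofactor measured fluorimetrically: diaphorase/resazurin Stop Mix […], halting the reaction. Before that, mutant enzyme and compound sat 1 h at RT, then substrate mix (4 μM NADPH, 1.6 mM α-KG) was added for 16 h at RT.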

[3] = system: U87MG pLVX-IDH2 R140Q-neo cells; assay: U87MG pLVX-IDH2 R140Q-neo cell based assay, 2-HG by LC-MS; settings: Homo sapiens, U-87 MG
[4] = system: Neurosphere cells (TS603); assay: Cellular assay for IDH1m R132H inhibitors, 2-HG by LC-MS in neurosphere cells (TS603); type: cell-based; settings: 2-HG in media at 48 hours
Summary of the method: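 TS603 neurosphere cells in NeuroCult medium were dosed with compound (0.25% DMSO final) at 37 C, 5% CO2. After 48 hours, medium 2-HG was measured by LC-MS. At 72 hours, viability was read by CellTiter-Glo luminescence.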

HT1080 cells = assay: Cellular assay for IDH1m R132C inhibitors, 2-HG by LC-MS in HT1080 cells; type: cell-based; settings: Homo sapiens, HT-1080
Procedure: The following describes the experimental procedures that can be used to obtain data on column 5 of Table 4.
Cells (HT1080 or U87MG) are grown in T125 flasks in DMEM containing 10% FBS, 1× penicillin/streptomycin and 500 ug/mL G418 (present in U87MG cells only). They are harvested by trypsin and seeded into 96 well white bottom plates at a density of 5000 cell/well in 100 ul/well in DMEM with 10% FBS. No cells are placed in columns 1 and 12. Cells are incubated overnight at 37° C. in 5% CO2. The next day test compounds are made up at 2× the final concentration and 100 ul are added to each cell well. The final concentration of DMSO is 0.2% and the DMSO control wells are plated in row G. The plates are then placed in the incubator for 48 hours. At 48 hours, 100 ul of media is removed from each well and analyzed by LC-MS for 2-HG concentrations. The cell plate is placed back in the incubator for another 24 hours. At 72 hours post compound addition, 10 mL/plate of Promega Cell Titer Glo reagent is thawed and mixed. The cell plate is removed from the incubator and allowed to equilibrate to room temperature. Then 100 ul of Promega Cell Titer Glo reagent is added to each well of media. The cell plate is then placed on an orbital shaker for 10 minutes and then allowed to sit at room temperature for 20 minutes. The plate is then read for luminescence with an integration time of 500 ms.
HT1080 cells are maintained in RPMI containing 10% FBS, 1× penicillin/streptomycin. […] The next day compounds are prepared in 100% DMSO and then diluted in media for a final concentration of 0.2% DMSO. Media is removed from the cell plates and 200 μL of the compound dilutions are added to each well. […] The cell plates are then allowed to incubate another 24 hours.

[5] = IDH1 wt/IDH1 R132H heterodimer, 300 μM NADP (saturated), read-out: IDH1 wt/R132H NADPH/NADP IC50 saturated
[6] = IDH1 wt/R132H heterodimer, NADPH/NADP, not saturated, read-out: IDH1 wt/R132H NADPH/NADP IC50 not saturated

Chain of IDH2 R140Q (P48735 40-452 R140Q): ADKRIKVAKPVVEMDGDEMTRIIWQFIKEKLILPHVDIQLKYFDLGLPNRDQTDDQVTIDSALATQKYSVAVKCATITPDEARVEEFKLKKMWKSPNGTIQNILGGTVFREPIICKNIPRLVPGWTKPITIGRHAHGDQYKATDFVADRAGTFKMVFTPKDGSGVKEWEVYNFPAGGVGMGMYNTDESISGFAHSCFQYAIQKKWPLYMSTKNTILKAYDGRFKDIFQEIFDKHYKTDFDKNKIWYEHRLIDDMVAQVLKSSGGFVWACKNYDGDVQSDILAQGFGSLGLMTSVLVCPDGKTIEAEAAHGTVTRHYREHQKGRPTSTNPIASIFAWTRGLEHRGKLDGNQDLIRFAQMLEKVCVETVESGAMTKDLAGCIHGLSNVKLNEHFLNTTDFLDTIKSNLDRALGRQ
Chain of IDH1-R132H homodimer enzyme (O75874 whole entry R132H): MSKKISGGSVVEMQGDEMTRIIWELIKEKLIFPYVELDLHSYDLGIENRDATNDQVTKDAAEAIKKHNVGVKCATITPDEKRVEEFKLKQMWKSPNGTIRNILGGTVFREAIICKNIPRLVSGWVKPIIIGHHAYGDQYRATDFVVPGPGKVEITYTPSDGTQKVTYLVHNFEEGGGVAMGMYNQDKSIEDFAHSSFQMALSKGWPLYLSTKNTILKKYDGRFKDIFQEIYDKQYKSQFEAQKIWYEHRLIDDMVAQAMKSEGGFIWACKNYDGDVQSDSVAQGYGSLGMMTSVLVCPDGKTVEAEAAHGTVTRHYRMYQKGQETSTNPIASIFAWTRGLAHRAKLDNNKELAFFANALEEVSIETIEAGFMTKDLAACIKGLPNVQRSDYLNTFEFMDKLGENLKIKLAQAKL
Chain of IDH1 wt/IDH1 R132H heterodimer (O75874 whole entry R132H): as above
Chain of IDH1 wt/IDH1 R132H heterodimer (O75874 whole entry, stated change not applied): as the sequence (O75874 whole entry R132H) above, with H132R counted along it

SMILES | IC50 [1, 5] | IC50 [2] | IC50 (IDH2 R140Q) | IC50 [3] | IC50 [4] | IC50 (HT1080 cells) | IC50 [1, 6]
Fc1cc(F)cc(Nc2nc(N[C@H]3CCC(F)(F)C3)nc(-c3cncc(C(F)(F)F)n3)n2)c1 [Compound 368] | < 50 nM | < 50 nM | < 50 nM | < 50 nM | < 50 nM | – | –
C[C@@H](Nc1nc(Nc2ccnc(C3(C#N)CC3)c2)nc(-c2cncc(C(F)(F)F)n2)n1)C(F)(F)F [Compound 377] | < 50 nM | – | < 50 nM | < 50 nM | < 50 nM | 100 to 1000 nM | –
FC1(F)CC[C@@H](Nc2nc(Nc3ccnc(C(F)(F)F)c3)nc(-c3cccc(C(F)(F)F)n3)n2)C1 [Compound 172] | – | < 50 nM | < 50 nM | < 50 nM | < 50 nM | – | < 50 nM
CC(Nc1nc(NC(C)C(F)(F)F)nc(-c2nc(C(F)(F)F)cs2)n1)C(F)(F)F (centres unmarked) [Compound 404] | < 50 nM | – | < 50 nM | < 50 nM | < 50 nM | < 50 nM | –
COc1ccc2c(c1)CC(Nc1nc(NC3CCC(F)(F)C3)nc(-c3cccc(C(F)(F)F)n3)n1)C2 (centres unmarked) [Compound 166] | – | – | – | – | < 50 nM | 100 to 1000 nM | < 50 nM
Cc1nc(-c2nc(NC3CCC(F)(F)C3)nc(NC3CCC(F)(F)C3)n2)c[nH]1 (centres unmarked) [Compound 319] | – | > 1000 nM | – | – | – | – | > 1000 nM
FC1(F)CCC(Nc2nc(Nc3ccnc(C(F)(F)F)c3)nc(-n3ccc(C(F)(F)F)n3)n2)C1 (centres unmarked) [Compound 173] | – | < 50 nM | < 50 nM | < 50 nM | < 50 nM | – | < 50 nM
FC1(F)CCC(Nc2nc(Nc3cncc(C(F)(F)F)c3)nc(-c3cccc(C(F)(F)F)n3)n2)C1 (centres unmarked) [Compound 405] | 50 to 100 nM | – | < 50 nM | < 50 nM | < 50 nM | 50 to 100 nM | –
Cc1nsc(-c2nc(NC3CCC(F)(F)CC3)nc(NC3CCC(F)(F)CC3)n2)n1 [Compound 328] | – | > 1000 nM | – | – | – | – | > 1000 nM
FC(F)c1ccnc(-c2nc(NC3CC(F)(F)C3)nc(NC3CC(F)(F)C3)n2)n1 [Compound 411] | 100 to 1000 nM | – | 50 to 100 nM | 50 to 100 nM | < 50 nM | 100 to 1000 nM | –
Cc1nc(-c2nc(NC3CC(F)(F)C3)nc(NC3CC(F)(F)C3)n2)c[nH]1 [Compound 317] | – | > 1000 nM | – | – | – | – | > 1000 nM
C[C@H](Nc1nc(N[C@@H](C)C(F)(F)F)nc(-c2cccc(Cl)n2)n1)C(F)(F)F [Compound 142] | – | – | – | < 50 nM | < 50 nM | < 50 nM | –
N#CC1(c2cc(Nc3nc(N[C@@H]4CCC(F)(F)C4)nc(-c4cncc(C(F)(F)F)n4)n3)ccn2)CC1 [Compound 378] | < 50 nM | – | < 50 nM | < 50 nM | < 50 nM | 50 to 100 nM | –
CC(F)(F)c1cccc(-c2nc(NC3CCC(F)(F)CC3)nc(NC3CCC(F)(F)CC3)n2)n1 [Compound 218] | – | – | < 50 nM | < 50 nM | < 50 nM | 100 to 1000 nM | < 50 nM
CC(F)(F)c1cccc(-c2nc(Nc3ccnc(C4(C#N)CC4)c3)nc(NC3CCC(F)(F)C3)n2)n1 (centres unmarked) [Compound 384] | < 50 nM | – | < 50 nM | < 50 nM | < 50 nM | 100 to 1000 nM | –
CC(F)(F)c1nc(-c2nc(NC3CCC(F)(F)CC3)nc(NC3CCC(F)(F)CC3)n2)cs1 [Compound 283] | – | > 1000 nM | 100 to 1000 nM | 100 to 1000 nM | – | – | 100 to 1000 nM
COCCc1ccnc(-c2nc(NC3CCC(F)(F)CC3)nc(NC3CCC(F)(F)CC3)n2)n1 [Compound 315] | – | > 1000 nM | – | – | – | – | > 1000 nM
C[C@@H](Nc1nc(N[C@H](C)C2CC2)nc(-c2cc(F)ccc2F)n1)C1CC1 [Compound 292] | – | – | – | – | – | > 1000 nM | 100 to 1000 nM

SMILES | IC50 [1, 5] | IC50 [2] | IC50 (IDH2 R140Q) | IC50 [3] | IC50 [4] | IC50 (HT1080 cells) | IC50 [1, 6]
FC(F)c1csc(-c2nc(NC3CC(F)(F)C3)nc(NC3CC(F)(F)C3)n2)n1 [Compound 403] | < 50 nM | – | < 50 nM | < 50 nM | < 50 nM | < 50 nM | –
FC1(F)CCC(Nc2nc(NC3CCC(F)(F)CC3)nc(-c3nc(-c4ccccc4)ns3)n2)CC1 [Compound 333] | – | > 1000 nM | – | – | – | – | > 1000 nM
Cn1cc(-c2nc(NC3CCC(F)(F)CC3)nc(NC3CCC(F)(F)CC3)n2)c(C(F)(F)F)n1 [Compound 275] | – | > 1000 nM | – | – | – | – | 100 to 1000 nM
C[C@H](Nc1nc(N[C@H](C)C(F)(F)F)nc(-c2cccc(Cl)n2)n1)C(F)(F)F [Compound 136] | – | – | – | < 50 nM | < 50 nM | < 50 nM | –
Cc1nc(-c2nc(NC3CCC(F)(F)CC3)nc(NC3CCC(F)(F)CC3)n2)c[nH]1 [Compound 332] | – | > 1000 nM | – | – | – | – | > 1000 nM
Oc1ccc(F)c(-c2nc(NC3CCC(F)(F)CC3)nc(NC3CCC(F)(F)CC3)n2)n1 [Compound 309] | – | > 1000 nM | – | – | – | – | > 1000 nM
FC1(F)CCC(Nc2nc(NC3Cc4cccnc4C3)nc(-c3cccc(C(F)(F)F)n3)n2)C1 (centres unmarked) [Compound 188] | – | – | – | – | < 50 nM | < 50 nM | < 50 nM
FC1(F)CCC(Nc2nc(NC3CCC(F)(F)C3)nc(-c3cncc(C(F)(F)F)n3)n2)C1 (centres unmarked) [Compound 138] | – | < 50 nM | < 50 nM | < 50 nM | < 50 nM | – | < 50 nM
Fc1cc(F)cc(Nc2nc(NC3CC(F)(F)C3)nc(-c3cncc(Cl)n3)n2)c1 [Compound 120] | – | < 50 nM | < 50 nM | < 50 nM | < 50 nM | – | < 50 nM
FC1(F)CCC(Nc2cc(NC3CCC(F)(F)CC3)nc(-c3cncc(C(F)(F)F)n3)n2)CC1 [Compound 421] | – | 100 to 1000 nM | – | – | – | – | 100 to 1000 nM
FC(F)c1ccnc(-c2nc(NC3CCC(F)(F)C3)nc(NC3CCC(F)(F)C3)n2)n1 (centres unmarked) [Compound 412] | 100 to 1000 nM | – | – | 50 to 100 nM | < 50 nM | 100 to 1000 nM | –
CC(Nc1nc(NC(C)C(F)(F)F)nc(-c2cccc(Cl)n2)n1)C(F)(F)F (centres unmarked) [Compound 130] | – | – | – | < 50 nM | – | < 50 nM | –
FC1(F)CCC(Nc2nc(NC3CCC(F)(F)C3)nc(-c3cccc(C4CC4)n3)n2)C1 (centres unmarked) [Compound 258] | – | – | – | < 50 nM | – | > 1000 nM | 100 to 1000 nM
FC(F)c1ccnc(-c2nc(NC3CCC(F)(F)CC3)nc(NC3CCC(F)(F)CC3)n2)n1 [Compound 308] | – | > 1000 nM | 100 to 1000 nM | 100 to 1000 nM | 100 to 1000 nM | – | > 1000 nM
C[C@@H](Nc1nc(N[C@H](C)C(F)(F)F)nc(-c2cccc(Cl)n2)n1)C(F)(F)F [Compound 101] | – | – | – | < 50 nM | < 50 nM | < 50 nM | –
CC(Nc1nc(Nc2ccnc(C(F)(F)F)c2)nc(-n2ccc(C(F)(F)F)n2)n1)C(F)(F)F (centres unmarked) [Compound 177] | – | 50 to 100 nM | < 50 nM | < 50 nM | < 50 nM | – | < 50 nM
N#CC1(c2cc(Nc3nc(NC4CCC(F)(F)C4)nc(-n4ccc(C(F)(F)F)n4)n3)ccn2)CC1 (centres unmarked) [Compound 185] | – | < 50 nM | < 50 nM | < 50 nM | < 50 nM | – | < 50 nM
